Key:
[1] = target: metalloprotease LF (lethal factor) (Bacillus anthracis, UniProt P15917); assay: biochemical
[2] = Insulin tolerance test in insulin insensitive db/db mice; assay type: in vivo; conditions: 25 mg/kg i.p. once, 30 minutes prior to insulin injection
Akt1 = Akt1 (Homo sapiens, UniProt P31749); assay: Selectivity profile: Akt1; assay type: biochemical
Chain of Akt1 (P31749 whole entry, species assumed): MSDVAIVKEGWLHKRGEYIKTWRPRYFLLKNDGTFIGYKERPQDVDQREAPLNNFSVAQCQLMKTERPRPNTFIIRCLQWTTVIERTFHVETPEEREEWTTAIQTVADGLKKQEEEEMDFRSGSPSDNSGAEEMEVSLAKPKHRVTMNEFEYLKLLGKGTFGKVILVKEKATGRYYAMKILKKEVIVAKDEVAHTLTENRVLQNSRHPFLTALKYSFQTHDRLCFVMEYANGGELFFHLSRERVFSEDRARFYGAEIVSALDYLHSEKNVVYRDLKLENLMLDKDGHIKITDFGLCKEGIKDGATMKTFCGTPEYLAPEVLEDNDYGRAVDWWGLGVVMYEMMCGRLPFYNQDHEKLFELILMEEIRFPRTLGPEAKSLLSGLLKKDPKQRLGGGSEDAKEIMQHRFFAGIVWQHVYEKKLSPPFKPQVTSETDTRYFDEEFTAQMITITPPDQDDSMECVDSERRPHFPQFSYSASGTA

Chain of metalloprotease LF (lethal factor) (P15917 34-809 limits assumed): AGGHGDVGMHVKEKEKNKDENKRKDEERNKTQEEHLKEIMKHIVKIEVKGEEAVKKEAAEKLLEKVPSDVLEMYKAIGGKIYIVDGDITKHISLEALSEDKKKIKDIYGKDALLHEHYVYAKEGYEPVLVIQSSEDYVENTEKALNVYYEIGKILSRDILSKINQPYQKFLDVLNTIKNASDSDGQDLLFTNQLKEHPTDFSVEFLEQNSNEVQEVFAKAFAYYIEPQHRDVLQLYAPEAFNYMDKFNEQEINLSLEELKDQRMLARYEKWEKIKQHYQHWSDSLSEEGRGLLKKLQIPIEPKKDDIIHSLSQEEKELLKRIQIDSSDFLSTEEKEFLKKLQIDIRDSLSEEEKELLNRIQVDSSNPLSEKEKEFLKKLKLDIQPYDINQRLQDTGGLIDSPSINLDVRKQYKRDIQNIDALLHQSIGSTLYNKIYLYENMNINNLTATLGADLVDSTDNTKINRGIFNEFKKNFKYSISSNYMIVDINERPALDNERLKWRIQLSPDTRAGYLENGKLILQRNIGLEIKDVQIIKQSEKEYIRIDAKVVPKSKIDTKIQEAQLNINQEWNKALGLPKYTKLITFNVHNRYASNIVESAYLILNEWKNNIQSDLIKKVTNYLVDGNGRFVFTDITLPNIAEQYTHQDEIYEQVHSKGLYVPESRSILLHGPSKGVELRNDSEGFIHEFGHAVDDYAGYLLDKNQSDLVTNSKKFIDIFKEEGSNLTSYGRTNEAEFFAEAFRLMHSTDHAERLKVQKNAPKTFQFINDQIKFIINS

SMILES | IC50 [1] | effect of insulin on blood glucose levels compared to the vehicle control [2] | activity against Akt kinase (Akt1)
O=c1[nH]nc(Sc2ncc([N+](=O)[O-])s2)n1-c1ccc([N+](=O)[O-])cc1 [Compound 3j, 4-(4-nitrophenyl)-5-(5-nitrothiazol-2-ylthio)-4H-1,2,4-triazol-3-ol] | > 100 µM |  | 
Nc1nnc(Sc2ncc([N+](=O)[O-])s2)s1 [Compound 9, 5-(5-nitrothiazol-2-ylthio)-1,3,4-thiadiazol-2-amine] | > 100 µM | statistically significant reduction in blood glucose levels | completely inactive
Cn1cccc1-c1nnc(Sc2ncc([N+](=O)[O-])s2)n1-c1ccc(Cl)cc1Cl [Compound 7b, 2-(4-(2,4-dichlorophenyl)-5-(1-methyl-1H-pyrrol-2-yl)-4H-1,2,4-triazol-3-ylthio)-5-nitrothiazole] | > 100 µM |  | 
O=[N+]([O-])c1cnc(Sc2nnc(Sc3ncc([N+](=O)[O-])s3)s2)s1 [Compound 8f, 2,5-bis(5-nitrothiazol-2-ylthio)-1,3,4-thiadiazole] | > 100 µM |  | 
